From US8808746B2, “Sustained-release microspheres and methods of making and using same” (Fresenius Kabi USA, LLC, priority 2004, dated 2014)

Assay: pH versus accelerated stability of octreotide acetate solutions (HPLC)
Assay type: physicochemical
Conditions: 70° C.
Description: For this study, 0.2 mg/mL octreotide acetate solutions in different pH buffers (buffer ionic strength=˜50 mM) were incubated at 70° C. At various designated times, the concentration of octreotide was determined using HPLC. The degradation rate versus time (Kobs) was calculated and plotted.

[1] = pH 4.0, Arginine-Acetate, 0 hours
[2] = pH 4.0, Arginine-Acetate, 24 hours
[3] = pH 4.0, Arginine-Acetate, 48 hours
[4] = pH 4.0, Arginine-Acetate, 69 hours
[5] = pH 5.0, Arginine-Acetate, 0 hours
[6] = pH 5.0, Arginine-Acetate, 24 hours
[7] = pH 5.0, Arginine-Acetate, 48 hours
[8] = pH 5.0, Arginine-Acetate, 69 hours

C[C@@H](O)[C@@H]1NC(=O)[C@H](CCCCN)NC(=O)[C@@H](Cc2c[nH]c3ccccc23)NC(=O)[C@H](Cc2ccccc2)NC(=O)[C@@H](NC(=O)[C@H](N)Cc2ccccc2)CSSC[C@@H](C(=O)N[C@H](CO)[C@@H](C)O)NC1=O [Octreotide, octreotide acetate]
stability in solution (between a pH of 3.0 and 5.0): relatively stable
Octreotide Assay (pH 2.0, Glycine-HCl, 0 hours): 0.1965 mg/mL
Octreotide Assay (% Stability) (pH 2.0, Glycine-HCl, 0 hours): (100.00) %
Octreotide Assay (pH 2.0, Glycine-HCl, 24 hours): 0.1651 mg/mL
Octreotide Assay (% Stability) (pH 2.0, Glycine-HCl, 24 hours): (84.02) %
Octreotide Assay (pH 2.0, Glycine-HCl, 48 hours): 0.1425 mg/mL
Octreotide Assay (% Stability) (pH 2.0, Glycine-HCl, 48 hours): (72.52) %
Octreotide Assay (pH 2.0, Glycine-HCl, 69 hours): 0.1303 mg/mL
Octreotide Assay (% Stability) (pH 2.0, Glycine-HCl, 69 hours): (66.31) %
Octreotide Assay (pH 3.0, Glycine-HCl, 0 hours): 0.2214 mg/mL
Octreotide Assay (% Stability) (pH 3.0, Glycine-HCl, 0 hours): (100.00) %
Octreotide Assay (pH 3.0, Glycine-HCl, 24 hours): 0.2136 mg/mL
Octreotide Assay (% Stability) (pH 3.0, Glycine-HCl, 24 hours): (96.48) %
Octreotide Assay (pH 3.0, Glycine-HCl, 48 hours): 0.2050 mg/mL
Octreotide Assay (% Stability) (pH 3.0, Glycine-HCl, 48 hours): (92.59) %
Octreotide Assay (pH 3.0, Glycine-HCl, 69 hours): 0.2004 mg/mL
Octreotide Assay (% Stability) (pH 3.0, Glycine-HCl, 69 hours): (90.51) %
Octreotide Assay [1]: 0.1911 mg/mL
Octreotide Assay (% Stability) [1]: (100.00) %
Octreotide Assay [2]: 0.1860 mg/mL
Octreotide Assay (% Stability) [2]: (97.33) %
Octreotide Assay [3]: 0.1784 mg/mL
Octreotide Assay (% Stability) [3]: (93.35) %
Octreotide Assay [4]: 0.1741 mg/mL
Octreotide Assay (% Stability) [4]: (91.10) %
Octreotide Assay [5]: 0.2027 mg/mL
Octreotide Assay (% Stability) [5]: (100.00) %
Octreotide Assay [6]: 0.1975 mg/mL
Octreotide Assay (% Stability) [6]: (97.43) %
Octreotide Assay [7]: 0.1848 mg/mL
Octreotide Assay (% Stability) [7]: (91.17) %
Octreotide Assay [8]: 0.1819 mg/mL
Octreotide Assay (% Stability) [8]: (89.74) %
Octreotide Assay (pH 6.0, Phosphate, 0 hours): 0.1934 mg/mL
Octreotide Assay (% Stability) (pH 6.0, Phosphate, 0 hours): (100.00) %
Octreotide Assay (pH 6.0, Phosphate, 24 hours): 0.1738 mg/mL
Octreotide Assay (% Stability) (pH 6.0, Phosphate, 24 hours): (89.87) %
Octreotide Assay (pH 6.0, Phosphate, 48 hours): 0.1434 mg/mL
Octreotide Assay (% Stability) (pH 6.0, Phosphate, 48 hours): (74.15) %
Octreotide Assay (pH 6.0, Phosphate, 69 hours): 0.1276 mg/mL
Octreotide Assay (% Stability) (pH 6.0, Phosphate, 69 hours): (65.98) %
Octreotide Assay (pH 7.0, Phosphate, 0 hours): 0.2047 mg/mL
Octreotide Assay (% Stability) (pH 7.0, Phosphate, 0 hours): (100.00) %
Octreotide Assay (pH 7.0, Phosphate, 24 hours): 0.1638 mg/mL
Octreotide Assay (% Stability) (pH 7.0, Phosphate, 24 hours): (80.02) %
Octreotide Assay (pH 7.0, Phosphate, 48 hours): 0.1247 mg/mL
Octreotide Assay (% Stability) (pH 7.0, Phosphate, 48 hours): (60.92) %
Octreotide Assay (pH 7.0, Phosphate, 69 hours): 0.1056 mg/mL
Octreotide Assay (% Stability) (pH 7.0, Phosphate, 69 hours): (51.59) %
Octreotide Assay (pH 8.0, Phosphate, 0 hours): 0.1906 mg/mL
Octreotide Assay (% Stability) (pH 8.0, Phosphate, 0 hours): (100.00) %
Octreotide Assay (pH 8.0, Phosphate, 24 hours): 0.0793 mg/mL
Octreotide Assay (% Stability) (pH 8.0, Phosphate, 24 hours): (41.61) %
Octreotide Assay (pH 8.0, Phosphate, 48 hours): 0.0369 mg/mL
Octreotide Assay (% Stability) (pH 8.0, Phosphate, 48 hours): (19.36) %
Octreotide Assay (pH 8.0, Phosphate, 69 hours): 0.0280 mg/mL
Octreotide Assay (% Stability) (pH 8.0, Phosphate, 69 hours): (14.69) %
